# Measurements published in patent US12435044B2, “Pyridazinone herbicides and pyridazinone intermediates used to prepare a herbicide” (FMC Corporation, priority 2018, dated 2025).
# How the values were obtained:
# Type in all cases: in vivo
# [1] = tested on: barnyardgrass (Echinochloa crus-galli); assay: Test A pre-/postemergence greenhouse test
# Excerpt: (§1) Seeds of plant species selected from barnyardgrass (Echinochloa crus-galli), kochia (Kochia scoparia), ragweed (common ragweed, Ambrosia elatior), ryegrass, Italian (Lolium multiflorum), foxtail, giant (Setaria faberii), foxtail, green (Setaria viridis) and pigweed (Amaranthus retroflexus) were planted into a blend of loam soil and sand and treated preemergence with a directed soil spray using test chemicals formulated in a non-phytotoxic solvent mixture which included a surfactant.
# (§2) At the same time, plants selected from these weed species and also wheat (Triticum aestivum), corn (Zea mays), blackgrass (Alopecurus myosuroides) and galium (catchweed bedstraw, Galium aparine) were planted in pots containing the same blend of loam soil and sand and treated with postemergence applications of test chemicals formulated in the same manner. Plants ranged in height from 2 to 10 cm and were in the one- to two-leaf stage for the postemergence treatment. Treated plants and untreated controls were maintained in a greenhouse for approximately 10 d, after which time all treated plants were compared to untreated controls and visually evaluated for injury. Plant response ratings, summarized in Table A, are based on a 0 to 100 scale where 0 is no effect and 100 is complete control. A dash (-) response means no test result.
# kochia (Kochia scoparia) = assay: Test A pre-/postemergence greenhouse test
# Excerpt: as §1, §2
# [2] = tested on: pigweed (Amaranthus retroflexus); assay: Test A pre-/postemergence greenhouse test
# Excerpt: as §1, §2
# [3] = tested on: ragweed (common ragweed, Ambrosia elatior); assay: Test A pre-/postemergence greenhouse test
# Excerpt: as §1, §2
# [4] = tested on: ryegrass, Italian (Lolium multiflorum); assay: Test A pre-/postemergence greenhouse test
# Excerpt: as §1, §2
# [5] = tested on: barnyardgrass (Echinochloa crus-galli); assay: Test B flooded paddy test; conditions: Flood, 250 g ai/ha
# Description: (§3) Plant species in the flooded paddy test selected from rice (Oryza sativa), sedge, umbrella (small-flower umbrella sedge, Cyperus difformis), duck salad (Heteranthera limosa) and barnyardgrass (Echinochloa crus-galli) were grown to the 2-leaf stage for testing. At time of treatment, test pots were flooded to 3 cm above the soil surface, treated by application of test compounds directly to the paddy water, and then maintained at that water depth for the duration of the test. Treated plants and controls were maintained in a greenhouse for 13 to 15 d, after which time all species were compared to controls and visually evaluated. Plant response ratings, summarized in Table B, are based on a scale of 0 to 100 where 0 is no effect and 100 is complete control. A dash (-) response means no test result.
# [6] = tested on: duck salad (Heteranthera limosa); assay: Test B flooded paddy test; conditions: Flood, 250 g ai/ha, Ducksalad
# Description: as §3
# rice (Oryza sativa) = assay: Test B flooded paddy test; conditions: Flood, 250 g ai/ha
# Description: as §3
# [7] = tested on: barnyardgrass (Echinochloa crus-galli); assay: Test C pre-/postemergence greenhouse test; conditions: scale 0 to 100
# Excerpt: (§4) Seeds of plant species selected from blackgrass (Alopecurus myosuroides), ryegrass, Italian (Lolium multiflorum), wheat, winter (winter wheat, Triticum aestivum), galium (catchweed bedstraw, Galium aparine), corn (Zea mays), crabgrass, large (Digitaria sanguinalis), foxtail, giant (Setaria faberii), johnsongrass (Sorghum halepense), lambsquarters (Chenopodium album), morningglory (Ipomoea coccinea), nutsedge, yellow (Cyperus esculentus), pigweed (Amaranthus retroflexus), ragweed (common ragweed, Ambrosia elatior), soybean (Glycine max), barnyardgrass (Echinochloa crus-galli), oilseed rape (Brassica napus), waterhemp (common waterhemp, Amaranthus rudis), pigweed, palmer (Amaranthus palmeri), kochia (Kochia scoparia), oat, wild (Avena fatua), surinam grass (Brachiaria decumbens), windgrass (Apera spica-venti), poinsettia, wild (Euphorbia heterophylla) and velvetleaf (Abutilon theophrasti) were planted into a silt loam soil and treated preemergence with test chemicals formulated in a non-phytotoxic solvent mixture which included a surfactant.
# (§5) At the same time, plants selected from these crop and weed species and also chickweed (common chickweed, Stellaria media), buckwheat, wild (Polygonum convolvulus), mustard, wild (Sinapis arvensis), field poppy (Papaver rhoeas), field violet (Viola arvensis), nightshade (eastern black nightshade, Solanum ptycanthum), speedwell (bird's-eye speedwell, Veronica persica), horseweed (Conyza canadensis), cutleaf geranium (Geranium dissectum), and Canada thistle (Cirsium arvense) were planted in pots containing Redi-Earth® planting medium (Scotts Company, 14111 Scottslawn Road, Marysville, Ohio 43041) comprising spaghnum peat moss, vermiculite, wetting agent and starter nutrients and treated with postemergence applications of test chemicals formulated in the same manner. Plants ranged in height from 2 to 18 cm (1- to 4-leaf stage) for postemergence treatments. Treated plants and controls were maintained in a greenhouse for 13 to 21 d, after which time all species were compared to controls and visually evaluated. Plant response ratings, summarized in Table C-1 (postemergence) and C-2 (preemergence), are based on a scale of 0 to 100 where 0 is no effect and 100 is complete control. A dash (-) response means no test result.
# [8] = tested on: foxtail, giant (Setaria faberii); assay: Test C pre-/postemergence greenhouse test; conditions: scale 0 to 100
# Excerpt: as §4, §5
# [9] = tested on: wheat, winter (winter wheat, Triticum aestivum); assay: Test C pre-/postemergence greenhouse test; conditions: scale 0 to 100
# Excerpt: as §4, §5
# [10] = tested on: field poppy (Papaver rhoeas); assay: Test C postemergence greenhouse test; conditions: scale 0 to 100
# Excerpt: as §4, §5
# [11] = tested on: chickweed (common chickweed, Stellaria media); assay: Test C postemergence greenhouse test; conditions: scale 0 to 100
# Excerpt: as §4, §5
structure (smiles),measurement,setting,value
Cc1ccc2ccc(F)cc2c1-c1c(O)c(Cl)nn(C)c1=O [Cpd. No. 21],Plant response rating (0 to 100 scale),"[1]; Postemergence, 31 g ai/ha",80
same,Plant response rating (0 to 100 scale),"[1]; Postemergence, 125 g ai/ha",90
same,Plant response rating (0 to 100 scale),"[1]; Preemergence, 31 g ai/ha",90
same,Plant response rating (0 to 100 scale),"[1]; Preemergence, 125 g ai/ha",100
same,Plant response rating (0 to 100 scale),"kochia (Kochia scoparia); Postemergence, 31 g ai/ha",80
same,Plant response rating (0 to 100 scale),"kochia (Kochia scoparia); Postemergence, 125 g ai/ha",90
same,Plant response rating (0 to 100 scale),"kochia (Kochia scoparia); Preemergence, 31 g ai/ha",50
same,Plant response rating (0 to 100 scale),"kochia (Kochia scoparia); Preemergence, 125 g ai/ha",100
same,Plant response rating (0 to 100 scale),"[2]; Postemergence, 31 g ai/ha",100
same,Plant response rating (0 to 100 scale),"[2]; Postemergence, 125 g ai/ha",100
same,Plant response rating (0 to 100 scale),"[2]; Preemergence, 31 g ai/ha",100
same,Plant response rating (0 to 100 scale),"[2]; Preemergence, 125 g ai/ha",100
same,Plant response rating (0 to 100 scale),"[3]; Postemergence, 31 g ai/ha",100
same,Plant response rating (0 to 100 scale),"[3]; Postemergence, 125 g ai/ha",100
same,Plant response rating (0 to 100 scale),"[3]; Preemergence, 31 g ai/ha",100
same,Plant response rating (0 to 100 scale),"[3]; Preemergence, 125 g ai/ha",100
same,Plant response rating (0 to 100 scale),"[4]; Postemergence, 31 g ai/ha",90
same,Plant response rating (0 to 100 scale),"[4]; Postemergence, 125 g ai/ha",100
same,Plant response rating (0 to 100 scale),"[4]; Preemergence, 31 g ai/ha",80
same,Plant response rating (0 to 100 scale),"[4]; Preemergence, 125 g ai/ha",100
same,Plant response rating (0 to 100 scale),[5],80
same,Plant response rating (0 to 100 scale),[6],90
same,Plant response rating (0 to 100 scale),rice (Oryza sativa),35
same,"Plant response rating, Barnyardgrass","[7]; Postemergence, 16 g ai/ha",60
same,"Plant response rating, Barnyardgrass","[7]; Postemergence, 31 g ai/ha",85
same,"Plant response rating, Barnyardgrass","[7]; Postemergence, 62 g ai/ha",90
same,"Plant response rating, Barnyardgrass","[7]; Postemergence, 125 g ai/ha",90
same,"Plant response rating, Barnyardgrass","[7]; Preemergence, 31 g ai/ha",75
same,"Plant response rating, Barnyardgrass","[7]; Preemergence, 61 g ai/ha",25
same,"Plant response rating, Barnyardgrass","[7]; Preemergence, 62 g ai/ha",85
same,"Plant response rating, Barnyardgrass","[7]; Preemergence, 125 g ai/ha",95
same,"Plant response rating, Foxtail, Giant","[8]; Postemergence, 16 g ai/ha",70
same,"Plant response rating, Foxtail, Giant","[8]; Postemergence, 31 g ai/ha",85
same,"Plant response rating, Foxtail, Giant","[8]; Postemergence, 62 g ai/ha",90
same,"Plant response rating, Foxtail, Giant","[8]; Postemergence, 125 g ai/ha",93
same,"Plant response rating, Foxtail, Giant","[8]; Preemergence, 31 g ai/ha",85
same,"Plant response rating, Foxtail, Giant","[8]; Preemergence, 61 g ai/ha",10
same,"Plant response rating, Foxtail, Giant","[8]; Preemergence, 62 g ai/ha",98
same,"Plant response rating, Foxtail, Giant","[8]; Preemergence, 125 g ai/ha",100
same,"Plant response rating, Wheat","[9]; Postemergence, 16 g ai/ha",45
same,"Plant response rating, Wheat","[9]; Postemergence, 31 g ai/ha",65
same,"Plant response rating, Wheat","[9]; Postemergence, 62 g ai/ha",78
same,"Plant response rating, Wheat","[9]; Postemergence, 125 g ai/ha",80
same,"Plant response rating, Wheat","[9]; Preemergence, 31 g ai/ha",90
same,"Plant response rating, Wheat","[9]; Preemergence, 61 g ai/ha",5
same,"Plant response rating, Wheat","[9]; Preemergence, 62 g ai/ha",90
same,"Plant response rating, Wheat","[9]; Preemergence, 125 g ai/ha",90
same,"Plant response rating, Field Poppy",[10]; 16 g ai/ha,60
same,"Plant response rating, Field Poppy",[10]; 31 g ai/ha,70
same,"Plant response rating, Field Poppy",[10]; 62 g ai/ha,75
same,"Plant response rating, Field Poppy",[10]; 125 g ai/ha,98
"Cc1ccc2ccc(C)c(-c3c(O)c(Cl)nn(C)c3=O)c2c1 [Cpd. No. 20, 6-chloro-4-(2,7-dimethyl-1-naphthalenyl)-5-hydroxy-2-methyl-3(2H)-pyridazinone]",Plant response rating (0 to 100 scale),"[1]; Postemergence, 31 g ai/ha",80
same,Plant response rating (0 to 100 scale),"[1]; Postemergence, 125 g ai/ha",100
same,Plant response rating (0 to 100 scale),"[1]; Preemergence, 31 g ai/ha",70
same,Plant response rating (0 to 100 scale),"[1]; Preemergence, 125 g ai/ha",100
same,Plant response rating (0 to 100 scale),"kochia (Kochia scoparia); Postemergence, 31 g ai/ha",70
same,Plant response rating (0 to 100 scale),"kochia (Kochia scoparia); Postemergence, 125 g ai/ha",90
same,Plant response rating (0 to 100 scale),"kochia (Kochia scoparia); Preemergence, 31 g ai/ha",30
same,Plant response rating (0 to 100 scale),"kochia (Kochia scoparia); Preemergence, 125 g ai/ha",90
same,Plant response rating (0 to 100 scale),"[2]; Postemergence, 31 g ai/ha",90
same,Plant response rating (0 to 100 scale),"[2]; Postemergence, 125 g ai/ha",100
same,Plant response rating (0 to 100 scale),"[2]; Preemergence, 31 g ai/ha",100
same,Plant response rating (0 to 100 scale),"[2]; Preemergence, 125 g ai/ha",100
same,Plant response rating (0 to 100 scale),"[3]; Postemergence, 31 g ai/ha",90
same,Plant response rating (0 to 100 scale),"[3]; Postemergence, 125 g ai/ha",90
same,Plant response rating (0 to 100 scale),"[3]; Preemergence, 31 g ai/ha",20
same,Plant response rating (0 to 100 scale),"[3]; Preemergence, 125 g ai/ha",90
same,Plant response rating (0 to 100 scale),"[4]; Postemergence, 31 g ai/ha",90
same,Plant response rating (0 to 100 scale),"[4]; Postemergence, 125 g ai/ha",100
same,Plant response rating (0 to 100 scale),"[4]; Preemergence, 31 g ai/ha",90
same,Plant response rating (0 to 100 scale),"[4]; Preemergence, 125 g ai/ha",100
same,Plant response rating (0 to 100 scale),[5],25
same,Plant response rating (0 to 100 scale),[6],100
same,Plant response rating (0 to 100 scale),rice (Oryza sativa),15
same,"Plant response rating, Barnyardgrass","[7]; Postemergence, 16 g ai/ha",55
same,"Plant response rating, Barnyardgrass","[7]; Postemergence, 31 g ai/ha",75
same,"Plant response rating, Barnyardgrass","[7]; Postemergence, 62 g ai/ha",75
same,"Plant response rating, Barnyardgrass","[7]; Postemergence, 125 g ai/ha",85
same,"Plant response rating, Barnyardgrass","[7]; Preemergence, 31 g ai/ha",85
same,"Plant response rating, Barnyardgrass","[7]; Preemergence, 61 g ai/ha",70
same,"Plant response rating, Barnyardgrass","[7]; Preemergence, 62 g ai/ha",95
same,"Plant response rating, Barnyardgrass","[7]; Preemergence, 125 g ai/ha",100
same,"Plant response rating, Foxtail, Giant","[8]; Postemergence, 16 g ai/ha",70
same,"Plant response rating, Foxtail, Giant","[8]; Postemergence, 31 g ai/ha",85
same,"Plant response rating, Foxtail, Giant","[8]; Postemergence, 62 g ai/ha",85
same,"Plant response rating, Foxtail, Giant","[8]; Postemergence, 125 g ai/ha",95
same,"Plant response rating, Foxtail, Giant","[8]; Preemergence, 31 g ai/ha",100
same,"Plant response rating, Foxtail, Giant","[8]; Preemergence, 61 g ai/ha",98
same,"Plant response rating, Foxtail, Giant","[8]; Preemergence, 62 g ai/ha",100
same,"Plant response rating, Foxtail, Giant","[8]; Preemergence, 125 g ai/ha",100
same,"Plant response rating, Wheat","[9]; Postemergence, 16 g ai/ha",0
same,"Plant response rating, Wheat","[9]; Postemergence, 31 g ai/ha",0
same,"Plant response rating, Wheat","[9]; Postemergence, 62 g ai/ha",0
same,"Plant response rating, Wheat","[9]; Postemergence, 125 g ai/ha",0
same,"Plant response rating, Wheat","[9]; Preemergence, 31 g ai/ha",60
same,"Plant response rating, Wheat","[9]; Preemergence, 61 g ai/ha",0
same,"Plant response rating, Wheat","[9]; Preemergence, 62 g ai/ha",60
same,"Plant response rating, Wheat","[9]; Preemergence, 125 g ai/ha",70
same,"Plant response rating, Chickweed",[11]; 16 g ai/ha,95
same,"Plant response rating, Chickweed",[11]; 31 g ai/ha,95
same,"Plant response rating, Chickweed",[11]; 62 g ai/ha,95
same,"Plant response rating, Chickweed",[11]; 125 g ai/ha,98
